The structures appear in SMILES notation. Like-named read-outs stand apart in the source and are kept apart here.

These results are taken from PMC3968014, “Design and Synthesis of a Library of Lead-Like 2,4-Bisheterocyclic Substituted Thiophenes as Selective Dyrk/Clk Inhibitors” (PLoS ONE, 2014).

In data set [1] the target is T1, CK2α (Homo sapiens, UniProt P68400).
T1 construct: purchased Life Technologies (Invitrogen SelectScreen); Dyrk1A, Dyrk2 and CK2α in-house or gifts
In words: CK2α kinase assay (counter screen). The note with it: read-out: percentage of inhibition CK2α. The format is biochemical. The protocol: Dyrk1A, Dyrk1B, Dyrk2, CK2α and Clk1 kinase reactions were performed in a reaction buffer containing 50 mM Tris/HCl, pH 7.4, 0.1 mM EGTA, 0.5 mM DTT, 10 mM MgCl2, 100 µM ATP and 0.33 µM [γ-^32ATP] as well as the appropriate substrate peptides, which were 100 µM Woodtide for the Dyrk isoforms ([…]-NH2), 60 µM CK2 substrate peptide ([…]-NH2, from Millipore) for CK2α or RS repeat peptide ([…]) for Clk1. The CK2α protein was a kind gift of M. Montenarh (Homburg). The kinase reactions were performed at 30°C for 15 min and terminated by spotting 5 µL of the reaction mixture onto a P81 phosphocellulose membrane (Whatman). The membrane was washed four times with 0.3% phosphoric acid and one time with acetone and dried. The dry membrane was exposed in a cassette to a Phosphor Screen Imaging Plate (FujiFilm) and the signals detected by scanning of the imaging plate in a Fuji FLA-3000 PhosphoImager. The spots were quantified using AIDA software (Raytest, Version 3.52) to determine the activities of the kinases in the assay reactions. […] IC50 values were calculated by fitting the data with Origin Pro 8.6 (OriginLabs). The calculated IC50 values are representative of at least two independent determinations.
A general note: Counterscreens check selectivity or assay interference.

A short description of data set [2]: Determination of logP, pka and logS (Sirius T3). The format is physicochemical. The note with it: Experimental. The protocol: The physicochemical parameters were determined on a Sirius T3 machine (Sirius Analytical machines, East Sussex, UK) by automated titration according to the manufacturer's instructions.
In data set [3] the target is T2, Dyrk1A (Homo sapiens, UniProt Q13627).
T2 construct: encoding the catalytic domain of human Dyrk1A; thrombin cleavage site (N); made in house; host or cells: Escherichia coli BL21(DE3) with pRARE
In words: Dyrk1A kinase assay (32P-ATP, Woodtide). The class given is biochemical. The note with it: for IC50: 100 µM ATP; for inhibition at 5 µM: read-out: percentage of inhibition Dyrk1A.

Data set [4] concerns the target T3, Dyrk2 (Homo sapiens, UniProt Q92630).
T3 construct: made in house; host or cells: Escherichia coli BL21(DE3) with pRARE; plasmid pGEX-2TK-Dyrk2 (gift from W. Becker, Aachen)
T3 sequence (Q92630 1-601): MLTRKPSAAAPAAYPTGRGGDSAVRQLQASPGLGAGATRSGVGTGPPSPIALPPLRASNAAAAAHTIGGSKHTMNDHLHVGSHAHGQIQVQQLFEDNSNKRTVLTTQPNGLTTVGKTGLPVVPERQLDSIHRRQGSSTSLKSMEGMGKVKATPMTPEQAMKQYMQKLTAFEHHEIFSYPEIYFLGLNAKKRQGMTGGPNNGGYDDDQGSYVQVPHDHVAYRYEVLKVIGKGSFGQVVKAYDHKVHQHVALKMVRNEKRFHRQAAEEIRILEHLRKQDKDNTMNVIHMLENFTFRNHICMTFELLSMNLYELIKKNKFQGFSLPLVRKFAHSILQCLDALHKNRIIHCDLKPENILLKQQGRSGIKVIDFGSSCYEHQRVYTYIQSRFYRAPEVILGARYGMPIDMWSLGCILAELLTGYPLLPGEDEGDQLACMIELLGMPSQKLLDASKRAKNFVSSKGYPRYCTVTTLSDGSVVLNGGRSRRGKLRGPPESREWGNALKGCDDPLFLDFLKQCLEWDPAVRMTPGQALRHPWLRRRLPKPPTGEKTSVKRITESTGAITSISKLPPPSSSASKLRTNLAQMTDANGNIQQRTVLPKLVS
In words: Dyrk2 kinase assay (32P-ATP, Woodtide). The format is biochemical. The note with it: for inhibition at 5 µM: read-out: percentage of inhibition Dyrk2.

For data set [5], the target named is T4, Dyrk1B (Homo sapiens, UniProt Q9Y463).
T4 construct: purchased Life Technologies PV4649 (LOT # 877059G)
T4 sequence (Q9Y463 whole entry): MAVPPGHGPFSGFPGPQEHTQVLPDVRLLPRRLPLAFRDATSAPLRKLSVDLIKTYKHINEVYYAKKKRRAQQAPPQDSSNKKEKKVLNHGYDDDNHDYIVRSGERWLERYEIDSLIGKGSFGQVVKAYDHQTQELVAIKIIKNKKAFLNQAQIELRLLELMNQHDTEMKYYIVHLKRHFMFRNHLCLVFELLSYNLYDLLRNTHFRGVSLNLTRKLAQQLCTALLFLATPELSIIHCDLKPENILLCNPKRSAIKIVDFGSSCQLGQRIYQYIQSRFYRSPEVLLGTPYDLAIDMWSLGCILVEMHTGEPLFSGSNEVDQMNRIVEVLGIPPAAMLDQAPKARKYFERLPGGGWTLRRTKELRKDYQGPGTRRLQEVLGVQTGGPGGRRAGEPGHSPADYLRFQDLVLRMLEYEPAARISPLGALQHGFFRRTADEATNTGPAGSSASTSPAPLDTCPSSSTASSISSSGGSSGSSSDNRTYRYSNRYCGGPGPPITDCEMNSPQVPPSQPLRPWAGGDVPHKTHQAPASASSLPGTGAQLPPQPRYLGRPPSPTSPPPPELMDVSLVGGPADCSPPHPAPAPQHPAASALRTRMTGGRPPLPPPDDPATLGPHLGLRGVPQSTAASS
In words: Dyrk1B kinase assay (32P-ATP, Woodtide). The format is biochemical. The note with it: for IC50: 100 µM ATP; for inhibition at 5 µM: read-out: percentage of inhibition Dyrk1B.

Data set [6] deals with V79 hamster lung fibroblast cells. In words: ViaLight Toxicity Assay. The format is cell-based. The note with it: 48 hours. The protocol:
V79 hamster lung fibroblast cells were plated at a density of 45,000 cells per well in a white 96 well plate and allowed to adhere and grow for 24 hours. The compounds were then applied as dilutions in cell culture medium (DMEM with 10% FCS and penicillin/streptomycin mix) at a final concentration of 5, 10, and 20 µM, respectively. The plate was further incubated for 48 hours at 37°C in a humidified atmosphere containing 5% CO2. The ATP level was detected with a LONZA ViaLight™ Plus Kit according to protocol 1 of the vendor's instructions. Luminescence was measured in a POLARstar plate reader (BMG Labtech, Offenburg, Germany). The background luminescence was obtained from equally treated, cell-free wells containing serum, and subtracted from all values. Inhibition values obtained for different compound concentrations were compared using the two-sided Student's t-test; levels of significance thus obtained are indicated by asterisks.

Data set [7] is described as follows: Metabolic Stability Assay. The note with it: male, Sprague-Dawley, rat, microsomes.
Data set [8] concerns the target Clk1 (Homo sapiens, UniProt P49759). In words: Clk1 kinase assay (RS repeat peptide). The format is biochemical. The note with it: read-out: % inhibition Clk1.
The subject of data set [9] is U2OS osteosarcoma cells. In words: Caspase-3 Assay (Caspase-Glo 3/7). The format is cell-based. The note with it: starved U2OS cells, 48 hours, vs DMSO control. The protocol: U2OS osteosarcoma cells were seeded in a 96 well flat bottom plate (15*10^3 cells/well). […] The induction of caspase-3/7 activity was measured using the Promega Caspase-Glo 3/7 assay system (Promega, LOT 0000054568). The resulting luciferase reaction signals that are proportional to the caspase induction were measured in a POLARstar plate reader (BMG Labtech, Offenburg, Germany). […] Values obtained for different compound concentrations were compared using the two-sided Student's t test; levels of significance thus obtained are indicated by asterisks.

[10] abbreviates: 100 µM ATP, read-out: IC50 Dyrk2.

T1 sequence (P68400 whole entry): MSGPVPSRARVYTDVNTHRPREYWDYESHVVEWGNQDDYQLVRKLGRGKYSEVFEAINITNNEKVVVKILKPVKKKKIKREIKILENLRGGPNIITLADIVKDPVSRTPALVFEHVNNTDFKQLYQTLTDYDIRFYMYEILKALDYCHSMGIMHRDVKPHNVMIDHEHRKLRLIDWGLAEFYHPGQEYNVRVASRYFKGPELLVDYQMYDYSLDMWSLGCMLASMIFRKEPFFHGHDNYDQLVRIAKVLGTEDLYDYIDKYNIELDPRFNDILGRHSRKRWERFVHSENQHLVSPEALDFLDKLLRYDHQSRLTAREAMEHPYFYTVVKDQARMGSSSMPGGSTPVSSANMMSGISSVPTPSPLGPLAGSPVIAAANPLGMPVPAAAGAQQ
Chain of Clk1 (P49759 whole entry): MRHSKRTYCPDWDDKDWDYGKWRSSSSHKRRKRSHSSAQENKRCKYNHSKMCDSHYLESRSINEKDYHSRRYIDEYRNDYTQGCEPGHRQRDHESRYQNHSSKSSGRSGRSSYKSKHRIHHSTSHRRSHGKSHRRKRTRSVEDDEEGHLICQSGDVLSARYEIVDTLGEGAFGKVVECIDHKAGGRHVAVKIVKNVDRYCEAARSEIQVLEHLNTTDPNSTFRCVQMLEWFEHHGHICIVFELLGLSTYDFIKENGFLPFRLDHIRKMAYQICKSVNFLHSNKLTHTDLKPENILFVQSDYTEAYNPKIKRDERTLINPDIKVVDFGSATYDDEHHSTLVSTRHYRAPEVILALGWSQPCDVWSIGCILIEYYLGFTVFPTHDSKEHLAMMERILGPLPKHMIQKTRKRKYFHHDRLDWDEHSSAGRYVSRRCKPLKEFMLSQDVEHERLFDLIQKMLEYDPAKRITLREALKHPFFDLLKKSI

In the case of `c1cncc(-c2csc(-c3cccnc3)c2)c1` [Compound 4], the inhibition at 5 µM in [1] came to 18.5%. Further, the logP in data set [2] was 2.47. Moreover, the solubility is 500 µg/mL in data set [2] (read-out: Solubility) and 2140 µM in [2] (read-out: logS (converted)). The pKa in [2] (read-out: pka1) amounted to 3.48; in [2] (read-out: pka2), 4.8.

Regarding `CC(=O)c1cncc(-c2csc(-c3cccnc3)c2)c1` [Compound 17, 1-{5-[5-(pyridin-3-yl)thiophen-3-yl]pyridin-3-yl}ethan-1-one], the melting point was in the range of 166 to 167 °C. Further, the inhibition at 5 µM in [1] was 0%. In addition, the 50% inhibitory concentration (IC50) in data set [3] turned out to be 900 nM. Besides, in data set [4] (setting [10]), the IC50 was determined as 900 nM. Moreover, the IC50 in data set [5] came to 1100 nM.

Take `NC(=O)c1cncc(-c2csc(-c3cccnc3)c2)c1` [Compound 19, 5-[5-(pyridin-3-yl)thiophen-3-yl]pyridine-3-carboxamide]: the melting point fell in the range of 217 to 218 °C. Also, the inhibition at 5 µM in data set [1] is 4.2%. The compound further gave a half-maximal inhibitory concentration (IC50) in data set [3] of 900 nM. Also, in data set [4] (setting [10]), the IC50 worked out at 300 nM. Besides, half-maximal inhibition in data set [5] (IC50) required 1500 nM.

In turn, `Cc1cncc(-c2csc(-c3cccnc3)c2)c1` [Compound 5, 3-methyl-5-[5-(pyridin-3-yl)thiophen-3-yl]pyridine] came in with a melting point of 106 to 107 °C. Further, the inhibition at 5 µM in data set [1] was 5%. Besides, in data set [3], the concentration for half-maximal inhibition (IC50) stood at 900 nM. Moreover, the IC50 in [4] (setting [10]) worked out at 600 nM. Moreover, in [5], it took 1200 nM to reach half-maximal inhibition (IC50).

Turning to `COc1ccc2c(c1)[nH]c1c(C)nccc12` [Harmine, harmine, reference compound], the “influence on cell viability (cellular ATP levels)” value in data set [6] (V79 cells, 5 µM) is “slightly toxic”. Moreover, the CLhep predicted at 0.5 µM in data set [7] is 53 mL/min/kg. In data set [7], this compound came in with a half-life at 0.5 µM of 18 min. Also, the inhibition at 5 µM is 98% in data set [3], 97% in data set [8], 68% in data set [4] and 98% in data set [5]. This compound also returned an IC50 in data set [4] (IC50 Dyrk2, 100 µM ATP) of 3000 nM.

Turning to `COc1cncc(-c2csc(-c3cccnc3)c2)c1` [Compound 8, 3-methoxy-5-[5-(pyridin-3-yl)thiophen-3-yl]pyridine], the melting point lay within 132 to 133 °C. Moreover, the inhibition at 5 µM in data set [1] came to 16%. Further, half-maximal inhibition in data set [3] (IC50) was put at 700 nM. For the same compound, the 50% inhibitory concentration (IC50) in [4] (setting [10]) came out at 200 nM. For the same compound, the half-inhibitory concentration (IC50) in data set [5] was determined as 300 nM.

Consider `c1cncc(-c2cc(-c3ccncc3)cs2)c1` [Compound 11], for which the inhibition at 5 µM is 0% in data set [1], 10% in [3] (at 5 µM), 20% in data set [4] (at 5 µM) and 10% in data set [5]. Moreover, the “influence on cell growth (cellular ATP levels)” value in [6] (V79 cells, 5, 10 and 20 µM) is “no influence”. Moreover, in data set [9], the caspase-3/7 activity entry is “only a slight increase”.

For orientation: inhibition means the share of the control response that was lost under treatment. One may read the logP as a log measure of how a compound divides between an organic and an aqueous phase. For orientation: melting point means the temperature of the solid-liquid transition. As a reminder, the IC50 is the concentration needed to halve the response being measured. As a reminder, the half-life is how long it takes for the measured level to halve. Read a high half-life as slow decline.
